In patent US20230414607A1, “METHODS OF TREATMENT” (BOW RIVER LLC, priority 2017, published 2023):
Where two headings read alike, the source gives them in different places. Marks after values point to notes of the source that are not given here.

Key:
[1] = Plasma ranolazine pharmacokinetics before, during and after posaconazole in normal-weight and obese subjects; type: in vivo, human; conditions: for Time the interaction persisted above an AUC GMR of 1.5: after cessation of posaconazole administration; for Time the interaction persisted above a Cmax GMR of 1.5: after cessation of posaconazole
Procedure: Procedures. […] On study day 2, subjects received posaconazole (300 mg delayed-release tablet twice a day), and on the mornings of days 3-15, subjects received posaconazole (300 mg delayed-release tablet daily). Because posaconazole is to be taken with food,^6 subjects were fed a continental breakfast in the clinical research unit after receiving posaconazole and before discharge from the unit. […] Samples were centrifuged, and the plasma was separated and frozen at −70° C. until the time of assay of plasma posaconazole concentrations. […] Plasma samples were extracted by methyl tertiary butyl ether, centrifuged, and the upper layer was transferred to plastic injection vials with MeOH/water (50:50). An aliquot of the sample was then injected onto a high-pressure liquid chromatography with tandem mass spectrometry triple quadrupole mass spectrometer (Sciex API-5500). The analytical column was a Unison CK-218, 3 μm particle size HPLC column (50×2 mm) from Imtakt USA (Portland, OR). […] Pharmacokinetic and Statistical Methods. […] This was used to calculate the half-life (t1/2). The area under the plasma concentration curve from time 0 until the last nonzero point was determined by the linear trapezoidal method. To this was added the residual area, calculated as the final nonzero concentration divided by β, yielding the total area under the plasma concentration curve extrapolated to infinity (AUC). Also tabulated was the observed maximum plasma concentration (Cmax). Variables were aggregated as arithmetic mean and SD.

[2] = as above; type: in vivo; conditions: human, oral, 500 mg, Day 1, obese subjects, ranolazine 500 mg ER
[3] = human, plasma, oral, 500 mg, Day 1 (before posaconazole), normal-weight subjects, ranolazine 500 mg ER, mean ± SD
[4] = human, plasma, oral, 500 mg, Day 1 (before posaconazole), obese subjects, ranolazine 500 mg ER, mean ± SD
[5] = human, plasma, oral, 500 mg, Day 18 (3 days after last posaconazole dose), normal-weight subjects, ranolazine 500 mg ER, mean ± SD
[6] = human, plasma, oral, 500 mg, Day 18 (3 days after last posaconazole dose), obese subjects, ranolazine 500 mg ER, mean ± SD
[7] = human, plasma, oral, 500 mg, Day 22 (7 days after last posaconazole dose), normal-weight subjects, ranolazine 500 mg ER, mean ± SD
[8] = human, plasma, oral, 500 mg, Day 22 (7 days after last posaconazole dose), obese subjects, ranolazine 500 mg ER, mean ± SD
[9] = human, plasma, oral, 500 mg, Day 25 (10 days after last posaconazole dose), normal-weight subjects, ranolazine 500 mg ER, mean ± SD
[10] = human, plasma, oral, 500 mg, Day 25 (10 days after last posaconazole dose), obese subjects, ranolazine 500 mg ER, mean ± SD
[11] = human, plasma, oral, 500 mg, Day 29 (14 days after last posaconazole dose), normal-weight subjects, ranolazine 500 mg ER, mean ± SD
[12] = human, plasma, oral, 500 mg, Day 29 (14 days after last posaconazole dose), obese subjects, ranolazine 500 mg ER, mean ± SD
[13] = human, plasma, oral, Day 15 (last day of posaconazole 300 mg daily), normal-weight subjects, ranolazine 500 mg ER, mean ± SD
[14] = human, plasma, oral, Day 15 (last day of posaconazole 300 mg daily), obese subjects, ranolazine 500 mg ER, mean ± SD

## COc1ccccc1OCC(O)CN1CCN(CC(=O)Nc2c(C)cccc2C)CC1 (stereo not shown) [ranolazine]
[1]; Day 1 (before posaconazole), normal-weight subjects, ranolazine 500 mg ER, mean ± SD
  T1/2: 4.98 ± 1.50^a h
[1]; normal-weight subjects
  Time the interaction persisted above an AUC GMR of 1.5: at least 7 days
  Time the interaction persisted above a Cmax GMR of 1.5: 7 days
[1]; obese subjects
  Time the interaction persisted above an AUC GMR of 1.5: ≥ 10 days
  Time the interaction persisted above a Cmax GMR of 1.5: 10 days
[1]; both normal-weight and obese subjects
  Time the lower bound of the AUC GMR 90% CI remained above 1.0: 7 days
[1]; [3]
  AUC(0-inf): 7080 ± 3600 ng·h/mL
  half-life: 4.99 ± 1.5 h
[1]; human, plasma, oral, 500 mg, Day 1 (before posaconazole), normal-weight subjects, ranolazine 500 mg extended-release tablet, mean ± SD, read-out: Cmax
  Cmax: 665 ± 318 ng/mL
[1]; [4]
  AUC(0-inf): 8130 ± 4840 ng·h/mL
  half-life: 6.02 ± 1.75 h
[1]; human, plasma, oral, 500 mg, Day 1 (before posaconazole), obese subjects, ranolazine 500 mg extended-release tablet, mean ± SD, read-out: Cmax
  Cmax: 559 ± 271 ng/mL
[1]; human, plasma, oral, 500 mg, Day 1, normal-weight subjects, ranolazine 500 mg ER, read-out: Geometric mean Cmax
  Cmax: 665 ± 318 ng/mL
[1]; [5]
  AUC(0-inf): 17300 ± 10300 ng·h/mL
  half-life: 5.73 ± 1.53 h
[1]; human, plasma, oral, 500 mg, Day 18 (3 days after last posaconazole dose), normal-weight subjects, ranolazine 500 mg ER, mean ± SD, read-out: Cmax
  Cmax: 1190 ± 469 ng/mL
[1]; [6]
  AUC(0-inf): 19300 ± 14200 ng·h/mL
  half-life: 7.93 ± 2.98 h
[1]; human, plasma, oral, 500 mg, Day 18 (3 days after last posaconazole dose), obese subjects, ranolazine 500 mg ER, mean ± SD, read-out: Cmax
  Cmax: 1100 ± 502 ng/mL
[1]; [7]
  AUC(0-inf): 13400 ± 6250 ng·h/mL
  half-life: 6.47 ± 3.14 h
[1]; human, plasma, oral, 500 mg, Day 22 (7 days after last posaconazole dose), normal-weight subjects, ranolazine 500 mg ER, mean ± SD, read-out: Cmax
  Cmax: 974 ± 400 ng/mL
[1]; [8]
  AUC(0-inf): 15900 ± 11800 ng·h/mL
  half-life: 6.09 ± 2.1 h
[1]; human, plasma, oral, 500 mg, Day 22 (7 days after last posaconazole dose), obese subjects, ranolazine 500 mg ER, mean ± SD, read-out: Cmax
  Cmax: 1060 ± 508 ng/mL
[1]; [9]
  AUC(0-inf): 9380 ± 4590 ng·h/mL
  half-life: 5.05 ± 1.82 h
[1]; human, plasma, oral, 500 mg, Day 25 (10 days after last posaconazole dose), normal-weight subjects, ranolazine 500 mg ER, mean ± SD, read-out: Cmax
  Cmax: 928 ± 482 ng/mL
[1]; [10]
  AUC(0-inf): 13800 ± 10600 ng·h/mL
  half-life: 6.07 ± 2.1 h
[1]; human, plasma, oral, 500 mg, Day 25 (10 days after last posaconazole dose), obese subjects, ranolazine 500 mg ER, mean ± SD, read-out: Cmax
  Cmax: 976 ± 487 ng/mL
[1]; [11]
  AUC(0-inf): 8570 ± 3800 ng·h/mL
  half-life: 4.45 ± 1.38 h
[1]; human, plasma, oral, 500 mg, Day 29 (14 days after last posaconazole dose), normal-weight subjects, ranolazine 500 mg ER, mean ± SD, read-out: Cmax
  Cmax: 751 ± 276 ng/mL
[1]; [12]
  AUC(0-inf): 10200 ± 7940 ng·h/mL
  half-life: 6.38 ± 3.05 h
[1]; human, plasma, oral, 500 mg, Day 29 (14 days after last posaconazole dose), obese subjects, ranolazine 500 mg ER, mean ± SD, read-out: Cmax
  Cmax: 719 ± 333 ng/mL
[1]; human, plasma, oral, 500 mg, Geometric mean AUC for ranolazine, Day 1, normal-weight subjects, ranolazine 500 mg ER
  AUC: 6450 ng·h/mL
[1]; [13]
  AUC(0-inf): 27500 ± 14900 ng·h/mL
  half-life: 9.54 ± 4.3 h
[1]; human, plasma, oral, Day 15 (last day of posaconazole 300 mg daily), normal-weight subjects, ranolazine 500 mg ER, mean ± SD, read-out: Cmax
  Cmax: 1430 ± 666 ng/mL
[1]; [14]
  AUC(0-inf): 25800 ± 21600 ng·h/mL
  half-life: 8.78 ± 5.58 h
[1]; human, plasma, oral, Day 15 (last day of posaconazole 300 mg daily), obese subjects, ranolazine 500 mg ER, mean ± SD, read-out: Cmax
  Cmax: 1180 ± 512 ng/mL
[2]; read-out: Geometric mean Cmax
  Cmax: 559 ± 271 ng/mL
[2]; Geometric mean AUC for ranolazine
  AUC: 6960 ng·h/mL
